The values below come from US20130217702A1 (Richter Gedeon Nyrt., priority 2010, published 2013).

Assay [1] deals with T1, recombinant human B1 receptors (Homo sapiens, UniProt P46663).
T1 construct: host or cells: CHO (CHO-B1)
T1 sequence (P46663 1-353): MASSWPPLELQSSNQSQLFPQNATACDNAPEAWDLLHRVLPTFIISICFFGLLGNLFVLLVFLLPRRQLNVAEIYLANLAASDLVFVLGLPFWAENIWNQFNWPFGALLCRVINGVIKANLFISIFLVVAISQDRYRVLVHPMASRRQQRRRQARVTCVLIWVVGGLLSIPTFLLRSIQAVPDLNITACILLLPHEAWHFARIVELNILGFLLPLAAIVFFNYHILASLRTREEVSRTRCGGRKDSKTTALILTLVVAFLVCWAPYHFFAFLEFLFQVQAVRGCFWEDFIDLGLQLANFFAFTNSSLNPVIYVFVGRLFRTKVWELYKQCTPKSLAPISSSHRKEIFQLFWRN
The experiment in a line: Functional assay: antagonist potency by cytosolic calcium measurement (plate reader fluorimeter) in CHO-B1 cells, agonist LysDABK. Conditions: CHO-B1 cells, inhibition of LysDABK (EC80)-evoked [Ca2+]i elevation; read-out: B1 func. Type of assay: cell-based. The method in brief:
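IC50 is the concentration giving half-maximal inhibition of the LysDABK (EC80) calcium response, fitted from at least three experiments. CHO cells stably expressing human B1 were dye-loaded, exposed to compound for 20-25 min, then read by fluo-4 fluorescence (ΔF/F) at 37 °C.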

Assay [2] deals with T2, human recombinant bradykinin B1 receptor (Homo sapiens, UniProt P46663).
T2 construct: host or cells: CHO cells, clone hB1-A5
T2 sequence (P46663 1-353): T1 sequence (P46663 1-353)
The experiment in a line: Human recombinant bradykinin B1 receptor competitive radioligand binding. As to conditions: hB1 expressed in CHO cells, [3H]-[Des-Arg10] Kallidin radioligand; read-out: B1 binding. The method in brief: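 Membranes from CHO cells expressing hB1 (20 μg protein/tube) incubated 15 min at 25° C. with [3,4-prolyl-3,4-^3H(N)]-[Des-Arg^10] Kallidin; nonspecific binding defined with 10 μM Lys-des-Arg^9-Bradykinin. Bound label collected by filtration and counted. IC50 from ≥7-point curves in triplicate; Ki by Cheng-Prusoff.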

The structures appear in SMILES notation.

For the compound `Cc1noc(-c2c(Cl)c3ccccc3n2-c2ccc(CNC(=O)C3(NC(=O)c4cncc(C(F)(F)F)c4)CC3)cc2)n1` [Example 115, N-(1-{4-[3-Chloro-2-(3-methyl-[1,2,4]oxadiazol-5-yl)-indol-1-yl]-benzylcarbamoyl}-cyclopropyl)-5-trifluoromethyl-nicotinamide], in assay [1], the IC50 was less than 20 nM. Also, in assay [2], the Ki is less than 20 nM.

In the case of `COc1ccc2c(c1)cc(-c1nc(C)no1)n2-c1ccc(CNC(=O)C2(NC(=O)c3cccnc3F)CC2)cc1` [Example 116, 2-Fluoro-N-(1-{4-[5-methoxy-2-(3-methyl-[1,2,4]oxadiazol-5-yl)-indol-1-yl]-benzylcarbamoyl}-cyclopropyl)-nicotinamide], in assay [1], the IC50 fell in the range of 20 to 100 nM. In addition, in assay [2], the Ki lay within 20 to 100 nM.

In the case of `Cc1nc(-c2c(Cl)c3cc(F)ccc3n2-c2ccc(CNC(=O)C3(NC(=O)c4cccnc4F)CC3)cc2)no1` [Example 117, N-(1-{4-[3-Chloro-5-fluoro-2-(5-methyl-[1,2,4]oxadiazol-3-yl)-indol-1-yl]-benzylcarbamoyl}-cyclopropyl)-2-fluoro-nicotinamide], in assay [1], the IC50 is less than 20 nM. For the same compound, the Ki in assay [2] was less than 20 nM.

Turning to `COc1ccc2c(c1)c(Cl)c(-c1nc(C)no1)n2-c1ccc(CNC(=O)C2(NC(=O)c3cccnc3F)CC2)cc1` [Example 118, N-(1-{4-[3-Chloro-5-methoxy-2-(3-methyl-[1,2,4]oxadiazol-5-yl)-indol-1-yl]-benzylcarbamoyl}-cyclopropyl)-2-fluoro-nicotinamide], the IC50 in assay [1] was less than 20 nM. For the same compound, the Ki in assay [2] is less than 20 nM.

With `Cn1nnc(-c2c(Cl)c3ccccc3n2-c2ccc(CNC(=O)C3(NC(=O)c4cccnc4F)CC3)cc2)n1` [Example 119, N-(1-{4-[3-Chloro-2-(2-methyl-2H-tetrazol-5-yl)-indol-1-yl]-benzylcarbamoyl}-cyclopropyl)-2-fluoro-nicotinamide], the IC50 in assay [1] is less than 20 nM. For the same compound, the Ki in assay [2] was less than 20 nM.

With `Cc1nc(-c2cc3cc(F)ccc3n2-c2ccc(CNC(=O)C3(NC(=O)c4cccnc4F)CC3)cc2)no1` [Example 120, 2-Fluoro-N-(1-{4-[5-fluoro-2-(5-methyl-[1,2,4]oxadiazol-3-yl)-indol-1-yl]-benzylcarbamoyl}-cyclopropyl)-nicotinamide], in assay [1], the IC50 is less than 20 nM. The Ki in assay [2] is less than 20 nM.

As to `Cc1nc(-c2c(Cl)c3ccccc3n2-c2ccc(CNC(=O)C3(NC(=O)c4cnn(C)c4)CC3)cc2)no1` [Example 121, 1-Methyl-1H-pyrazole-4-carboxylic acid (1-{4-[3-chloro-2-(5-methyl-[1,2,4]oxadiazol-3-yl)-indol-1-yl]-benzylcarbamoyl}-cyclopropyl)-amide], the IC50 in assay [1] lay in the range of 20 to 100 nM. Also, the Ki in assay [2] was less than 20 nM.

Consider `Cc1nc(-c2c(Cl)c3ccccc3n2-c2ccc(CNC(=O)C3(NC(=O)C4CNC(=O)N4)CC3)cc2)no1` (centres unmarked) [Example 122, 2-Oxo-imidazolidine-4-carboxylic acid (1-{4-[3-chloro-2-(5-methyl-[1,2,4]oxadiazol-3-yl)-indol-1-yl]-benzylcarbamoyl}-cyclopropyl)-amide], for which, in assay [1], the IC50 was in the range of 20 to 100 nM. Besides, the Ki in assay [2] is 20 to 100 nM.

Turning to `CCc1cc(C(=O)NC2(C(=O)NCc3ccc(-n4c(-c5noc(C)n5)c(Cl)c5ccccc54)cc3)CC2)on1` [Example 123, 3-Ethyl-isoxazole-5-carboxylic acid (1-{4-[3-chloro-2-(5-methyl-[1,2,4]oxadiazol-3-yl)-indol-1-yl]-benzylcarbamoyl}-cyclopropyl)-amide], the IC50 in assay [1] is less than 20 nM. The Ki in assay [2] is less than 20 nM.

As for `COc1ccc2c(c1)cc(-c1nnc(C)o1)n2-c1ccc(CNC(=O)C2(NC(=O)CC(F)(F)F)CC2)cc1` [Example 124, 1-(3,3,3-Trifluoro-propionylamino)-cyclopropanecarboxylic acid 4-[5-methoxy-2-(5-methyl-[1,3,4]oxadiazol-2-yl)-indol-1-yl]-benzylamide], the IC50 in assay [1] is 20 to 100 nM. Further, the Ki in assay [2] fell in the range of 20 to 100 nM.

For the compound `COc1ccc2c(c1)cc(-c1nnc(C)o1)n2-c1ccc(CNC(=O)C2(NC(=O)c3cncc(C(F)(F)F)c3)CC2)cc1` [Example 125, N-(1-{4-[5-Methoxy-2-(5-methyl-[1,3,4]oxadiazol-2-yl)-indol-1-yl]-benzylcarbamoyl}-cyclopropyl)-5-trifluoromethyl-nicotinamide], in assay [1], the IC50 was less than 20 nM. For the same compound, the Ki in assay [2] is less than 20 nM.

Regarding `COc1ccc2c(c1)cc(-c1nnc(C)o1)n2-c1ccc(CNC(=O)C2(NC(=O)c3cc(OC)no3)CC2)cc1` [Example 126, 3-Methoxy-isoxazole-5-carboxylic acid (1-{4-[5-methoxy-2-(5-methyl-[1,3,4]oxadiazol-2-yl)-indol-1-yl]-benzylcarbamoyl}-cyclopropyl)-amide], the IC50 in assay [1] was in the range of 20 to 100 nM. Also, in assay [2], the Ki was less than 20 nM.

Regarding `Cc1nc(-c2cc3cc(Cl)ccc3n2-c2ccc(CNC(=O)C3(NC(=O)CC(F)(F)F)CC3)cc2)no1` [Example 127, 1-(3,3,3-Trifluoro-propionylamino)-cyclopropanecarboxylic acid 4-[5-chloro-2-(5-methyl-[1,2,4]oxadiazol-3-yl)-indol-1-yl]-benzylamide], the IC50 in assay [1] is less than 20 nM. For the same compound, the Ki in assay [2] was less than 20 nM.

As for `Cc1nc(-c2cc3cc(Cl)ccc3n2-c2ccc(CNC(=O)C3(NC(=O)c4cncc(C(F)(F)F)c4)CC3)cc2)no1` [Example 128, N-(1-{4-[5-Chloro-2-(5-methyl-[1,2,4]oxadiazol-3-yl)-indol-1-yl]-benzylcarbamoyl}-cyclopropyl)-5-trifluoromethyl-nicotinamide], the IC50 in assay [1] was less than 20 nM. Further, the Ki in assay [2] was less than 20 nM.

For `COc1ccc2c(c1)c(Cl)c(-c1noc(C)n1)n2-c1ccc(CNC(=O)C2(NC(=O)c3cnc(C)cn3)CC2)cc1` [Example 129, 5-Methyl-pyrazine-2-carboxylic acid (1-{4-[3-chloro-5-methoxy-2-(5-methyl-[1,2,4]oxadiazol-3-yl)-indol-1-yl]-benzylcarbamoyl}-cyclopropyl)-amide], the IC50 in assay [1] is less than 20 nM. Further, the Ki in assay [2] is less than 20 nM.

As to `COc1ccc2c(c1)c(Cl)c(-c1noc(C)n1)n2-c1ccc(CNC(=O)C2(NC(=O)c3cncc(C(F)(F)F)c3)CC2)cc1` [Example 130, N-(1-{4-[3-Chloro-5-methoxy-2-(5-methyl-[1,2,4]oxadiazol-3-yl)-indol-1-yl]-benzylcarbamoyl}-cyclopropyl)-5-trifluoromethyl-nicotinamide], the IC50 in assay [1] was less than 20 nM. Besides, the Ki in assay [2] was less than 20 nM.

In the case of `Cc1cnc(C(=O)NC2(C(=O)NCc3ccc(-n4c(-c5noc(C)n5)cc5cc(F)ccc54)cc3F)CC2)cn1` [Example 131, 5-Methyl-pyrazine-2-carboxylic acid (1-{2-fluoro-4-[5-fluoro-2-(5-methyl-[1,2,4]oxadiazol-3-yl)-indol-1-yl]-benzylcarbamoyl}-cyclopropyl)-amide], the IC50 in assay [1] lay in the range of 20 to 100 nM. For the same compound, in assay [2], the Ki is less than 20 nM.

In the case of `Cc1nc(-c2cc3cc(F)ccc3n2-c2ccc(CNC(=O)C3(NC(=O)c4cncc(C(F)(F)F)c4)CC3)c(F)c2)no1` [Example 132, N-(1-{2-Fluoro-4-[5-fluoro-2-(5-methyl-[1,2,4]oxadiazol-3-yl)-indol-1-yl]-benzylcarbamoyl}-cyclopropyl)-5-trifluoromethyl-nicotinamide], the IC50 in assay [1] was less than 20 nM. For the same compound, the Ki in assay [2] is less than 20 nM.

For `COc1cc(C(=O)NC2(C(=O)NCc3ccc(-n4c(-c5noc(C)n5)cc5cc(F)ccc54)cc3F)CC2)on1` [Example 133, 3-Methoxy-isoxazole-5-carboxylic acid (1-{2-fluoro-4-[5-fluoro-2-(5-methyl-[1,2,4]oxadiazol-3-yl)-indol-1-yl]-benzylcarbamoyl}-cyclopropyl)-amide], in assay [1], the IC50 is less than 20 nM. For the same compound, in assay [2], the Ki is less than 20 nM.

In the case of `Cc1nc(-c2c(Cl)c3ccccc3n2-c2ccc(CNC(=O)C3(NC(=O)c4ccno4)CC3)cc2)no1` [Example 134, Isoxazole-5-carboxylic acid (1-{4-[3-chloro-2-(5-methyl-[1,2,4]oxadiazol-3-yl)-indol-1-yl]-benzylcarbamoyl}-cyclopropyl)-amide], the IC50 in assay [1] was less than 20 nM. Also, the Ki in assay [2] was less than 20 nM.

In the case of `Cc1cc(C(=O)NC2(C(=O)NCc3ccc(-n4c(-c5noc(C)n5)c(Cl)c5ccccc54)cc3)CC2)no1` [Example 135, 5-Methyl-isoxazole-3-carboxylic acid (1-{4-[3-chloro-2-(5-methyl-[1,2,4]oxadiazol-3-yl)-indol-1-yl]-benzylcarbamoyl}-cyclopropyl)-amide], in assay [1], the IC50 was 20 to 100 nM. The Ki in assay [2] was less than 20 nM.

With `Cc1nc(-c2c(Cl)c3ccccc3n2-c2ccc(CNC(=O)C3(NC(=O)C4CCCO4)CC3)cc2)no1` (centres unmarked) [Example 136, Tetrahydro-furan-2-carboxylic acid (1-{4-[3-chloro-2-(5-methyl-[1,2,4]oxadiazol-3-yl)-indol-1-yl]-benzylcarbamoyl}-cyclopropyl)-amide], the IC50 in assay [1] was in the range of 20 to 100 nM. Moreover, the Ki in assay [2] was in the range of 20 to 100 nM.
